# Reference: ChEMBL document CHEMBL3885881, “DrugMatrix”
# Organism: Rattus norvegicus
# Experiment: DrugMatrix - Regimen: Daily Repeat
# Format: toxicity, organism-based, Sprague-Dawley
# Parameters: regimen Daily Repeat, gender Male, age 6-8 weeks
# Details: in vivo, iv, vehicle 100 % SALINE; for ABSOLUTE BASOPHIL / ABSOLUTE EOSINOPHIL / ABSOLUTE LYMPHOCYTE / ABSOLUTE MONOCYTE / ABSOLUTE SEGMENTED NEUTROPHIL / BASOPHIL / EOSINOPHIL / ERYTHROCYTE COUNT / HEMATOCRIT / HEMOGLOBIN / LEUKOCYTE COUNT / LYMPHOCYTE / MEAN CORPUSCULAR HEMOGLOBIN / MEAN CORPUSCULAR HEMOGLOBIN CONCENTRATION / MEAN CORPUSCULAR VOLUME / MONOCYTE / NEUTROPHIL / NUCLEATED RED BLOOD CELLS / PLATELET COUNT: tissue Blood; for ALANINE AMINOTRANSFERASE / ALBUMIN / ALKALINE PHOSPHATASE / ASPARTATE AMINOTRANSFERASE / BLOOD UREA NITROGEN / CARBON DIOXIDE / CHLORIDE / CHOLESTEROL / CREATINE PHOSPHOKINASE / CREATININE / GLUCOSE / LACTATE DEHYDROGENASE / LIPASE / PHOSPHORUS / POTASSIUM / SODIUM / TOTAL BILIRUBIN / TOTAL PROTEIN / URIC ACID: tissue Plasma
# [1] = 0.08 mg/kg, 120 h, dose level Low, time 5 day
# [2] = 0.3 mg/kg, 72 h, dose level High, time 3 day
# [3] = 0.3 mg/kg, 120 h, dose level High, time 5 day
smiles,measurement,setting,value
CC[C@]1(O)C[C@@H]2CN(CCc3c([nH]c4ccccc34)[C@@](C(=O)OC)(c3cc4c(cc3OC)N(C)[C@H]3[C@@](O)(C(=O)OC)[C@H](OC(C)=O)[C@]5(CC)C=CCN6CC[C@]43[C@@H]65)C2)C1 [VINBLASTINE],ABSOLUTE BASOPHIL,[1],0 CELLS/uL
same,ABSOLUTE EOSINOPHIL,[1],0 CELLS/uL
same,ABSOLUTE LYMPHOCYTE,[1],7180.33 CELLS/uL
same,ABSOLUTE MONOCYTE,[1],26.33 CELLS/uL
same,ABSOLUTE SEGMENTED NEUTROPHIL,[1],293.33 CELLS/uL
same,BASOPHIL,[1],0%
same,EOSINOPHIL,[1],0%
same,ERYTHROCYTE COUNT,[1],5.15 x10E6/uL
same,HEMATOCRIT,[1],32.43%
same,HEMOGLOBIN,[1],13 G/DL
same,LEUKOCYTE COUNT,[1],7.5 x10E3/uL
same,LYMPHOCYTE,[1],95.67%
same,MEAN CORPUSCULAR HEMOGLOBIN,[1],25.27 pg
same,MEAN CORPUSCULAR HEMOGLOBIN CONCENTRATION,[1],40.07 G/DL
same,MEAN CORPUSCULAR VOLUME,[1],63.1 fL
same,MONOCYTE,[1],0.33%
same,NEUTROPHIL,[1],4%
same,NUCLEATED RED BLOOD CELLS,[1],0 /100WBC
same,PLATELET COUNT,[1],1437 x10E3/uL
same,ALANINE AMINOTRANSFERASE,[1],44 u/L
same,ALBUMIN,[1],3.93 G/DL
same,ALKALINE PHOSPHATASE,[1],340.67 u/L
same,ASPARTATE AMINOTRANSFERASE,[1],88.67 u/L
same,BLOOD UREA NITROGEN,[1],16.67 mg/dL
same,CARBON DIOXIDE,[1],28 mmol/L
same,CHLORIDE,[1],101.33 MEQ/L
same,CHOLESTEROL,[1],69.67 mg/dL
same,CREATINE PHOSPHOKINASE,[1],599 u/L
same,CREATININE,[1],0.2 mg/dL
same,GLUCOSE,[1],212 mg/dL
same,LACTATE DEHYDROGENASE,[1],334.67 u/L
same,LIPASE,[1],10.67 u/L
same,PHOSPHORUS,[1],13.3 mg/dL
same,POTASSIUM,[1],5.71 MEQ/L
same,SODIUM,[1],141.27 MEQ/L
same,TOTAL BILIRUBIN,[1],0.2 mg/dL
same,TOTAL PROTEIN,[1],5.83 G/DL
same,URIC ACID,[1],1.77 mg/dL
same,ABSOLUTE BASOPHIL,[2],0 CELLS/uL
same,ABSOLUTE EOSINOPHIL,[2],0 CELLS/uL
same,ABSOLUTE LYMPHOCYTE,[2],5650.33 CELLS/uL
same,ABSOLUTE MONOCYTE,[2],34.67 CELLS/uL
same,ABSOLUTE SEGMENTED NEUTROPHIL,[2],381.67 CELLS/uL
same,BASOPHIL,[2],0%
same,EOSINOPHIL,[2],0%
same,ERYTHROCYTE COUNT,[2],4.96 x10E6/uL
same,HEMATOCRIT,[2],31.5%
same,HEMOGLOBIN,[2],12.67 G/DL
same,LEUKOCYTE COUNT,[2],6.07 x10E3/uL
same,LYMPHOCYTE,[2],93%
same,MEAN CORPUSCULAR HEMOGLOBIN,[2],25.5 pg
same,MEAN CORPUSCULAR HEMOGLOBIN CONCENTRATION,[2],40.23 G/DL
same,MEAN CORPUSCULAR VOLUME,[2],63.4 fL
same,MONOCYTE,[2],0.67%
same,NEUTROPHIL,[2],6.33%
same,NUCLEATED RED BLOOD CELLS,[2],0 /100WBC
same,PLATELET COUNT,[2],588.33 x10E3/uL
same,ALANINE AMINOTRANSFERASE,[2],129 u/L
same,ALBUMIN,[2],4.03 G/DL
same,ALKALINE PHOSPHATASE,[2],429 u/L
same,ASPARTATE AMINOTRANSFERASE,[2],337.67 u/L
same,BLOOD UREA NITROGEN,[2],15 mg/dL
same,CARBON DIOXIDE,[2],31 mmol/L
same,CHLORIDE,[2],102 MEQ/L
same,CHOLESTEROL,[2],104 mg/dL
same,CREATINE PHOSPHOKINASE,[2],645 u/L
same,CREATININE,[2],0.16 mg/dL
same,GLUCOSE,[2],167.33 mg/dL
same,LACTATE DEHYDROGENASE,[2],246.33 u/L
same,LIPASE,[2],10.67 u/L
same,PHOSPHORUS,[2],11.6 mg/dL
same,POTASSIUM,[2],5.31 MEQ/L
same,SODIUM,[2],144.2 MEQ/L
same,TOTAL BILIRUBIN,[2],0.47 mg/dL
same,TOTAL PROTEIN,[2],5.83 G/DL
same,URIC ACID,[2],1.07 mg/dL
same,ABSOLUTE BASOPHIL,[3],0 CELLS/uL
same,ABSOLUTE EOSINOPHIL,[3],11.33 CELLS/uL
same,ABSOLUTE LYMPHOCYTE,[3],4520 CELLS/uL
same,ABSOLUTE MONOCYTE,[3],22.67 CELLS/uL
same,ABSOLUTE SEGMENTED NEUTROPHIL,[3],46 CELLS/uL
same,BASOPHIL,[3],0%
same,EOSINOPHIL,[3],0.33%
same,ERYTHROCYTE COUNT,[3],5.7 x10E6/uL
same,HEMATOCRIT,[3],34.73%
same,HEMOGLOBIN,[3],13.5 G/DL
same,LEUKOCYTE COUNT,[3],4.6 x10E3/uL
same,LYMPHOCYTE,[3],98%
same,MEAN CORPUSCULAR HEMOGLOBIN,[3],23.7 pg
same,MEAN CORPUSCULAR HEMOGLOBIN CONCENTRATION,[3],38.87 G/DL
same,MEAN CORPUSCULAR VOLUME,[3],61.03 fL
same,MONOCYTE,[3],0.67%
same,NEUTROPHIL,[3],1%
same,NUCLEATED RED BLOOD CELLS,[3],0.33 /100WBC
same,PLATELET COUNT,[3],95.67 x10E3/uL
same,ALANINE AMINOTRANSFERASE,[3],423.33 u/L
same,ALBUMIN,[3],3.6 G/DL
same,ALKALINE PHOSPHATASE,[3],438.67 u/L
same,ASPARTATE AMINOTRANSFERASE,[3],923 u/L
same,BLOOD UREA NITROGEN,[3],14.67 mg/dL
same,CARBON DIOXIDE,[3],33 mmol/L
same,CHLORIDE,[3],96 MEQ/L
same,CHOLESTEROL,[3],192.33 mg/dL
same,CREATINE PHOSPHOKINASE,[3],622.67 u/L
same,CREATININE,[3],0.1 mg/dL
same,GLUCOSE,[3],121 mg/dL
same,LACTATE DEHYDROGENASE,[3],415 u/L
same,LIPASE,[3],10.67 u/L
same,PHOSPHORUS,[3],10.6 mg/dL
same,POTASSIUM,[3],5.16 MEQ/L
same,SODIUM,[3],141.4 MEQ/L
same,TOTAL BILIRUBIN,[3],5.67 mg/dL
same,TOTAL PROTEIN,[3],5.83 G/DL
same,URIC ACID,[3],0.7 mg/dL
